Test results reported in ChEMBL document CHEMBL3885861, “Open TG-GATES”.

Species on record: Rattus norvegicus
Assay: Open TG-GATES - Regimen: Single
Type: toxicity, organism-based, Sprague-Dawley
Set-up: regimen Single, gender Male, age 6 weeks
Details: in vivo, iv, 0 mg/kg, route intravenous injection, dose level Control; for APTT / Bas / Eos / Fbg / Hb / Ht / Lym / MCH / MCHC / MCV / Mono / Neu / PT / Plat / RBC / Ret / WBC: tissue Blood; for KIDNEY_L / KIDNEY_R / KIDNEY_TOTAL: tissue Kidney; for LIVER: tissue Liver; for A/G / ALP / ALT / AST / BUN / CRE / Ca / Cl / DBIL / GLC / IP / K / LDH / Na / PL / RALB / TBIL / TC / TG / TP / gamma-GTP: tissue Plasma

`CN(C)c1ncnc2c1ncn2[C@@H]1O[C@H](CO)[C@@H](N)[C@H]1O` [PUROMYCIN AMINONUCLEOSIDE] gave a TERMINAL_BW (3 h) of 211.9 g, an APTT (3 h) of 22.7 s and a Bas (3 h) of 0%. The Eos (3 h) was 1%, the Fbg (3 h) was 253 mg/dL and the Hb (3 h) was 12.7 g/dL. It also gave a Ht (3 h) of 37.2%, a Lym (3 h) of 82.6% and an MCH (3 h) of 21.3 pg. For the same compound, the MCHC (3 h) was 34.1%, the MCV (3 h) was 62.5 fL and the Mono (3 h) was 2.2%. The Neu (3 h) was 13.6%, the PT (3 h) was 16.1 s and the Plat (3 h) was 120.5 x10_4/uL. It also gave an RBC (3 h) of 594.8 x10_4/ul, a Ret (3 h) of 7.1% and a WBC (3 h) of 122.5 x10_2/uL. It also gave a KIDNEY_L (3 h) of 0.9 g, a KIDNEY_R (3 h) of 0.9 g and a KIDNEY_TOTAL (3 h) of 1.9 g. It also gave an LIVER (3 h) of 9.5 g, an A/G (3 h) of 1.2 and an ALP (3 h) of 1324.8 IU/L. The ALT (3 h) was 32.6 IU/L, the AST (3 h) was 66.4 IU/L and the BUN (3 h) was 13.2 mg/dL. For the same compound, the CRE (3 h) was 0.2 mg/dL, the Ca (3 h) was 11 mg/dL and the Cl (3 h) was 105.2 meq/L. For the same compound, the DBIL (3 h) was 0.002 mg/dL, the GLC (3 h) was 191.4 mg/dL and the IP (3 h) was 7.7 mg/dL. It also gave a K (3 h) of 4.6 meq/L, an LDH (3 h) of 171.2 IU/L and a Na (3 h) of 140.4 meq/L. For the same compound, the PL (3 h) was 130.2 mg/dL, the RALB (3 h) was 2.9 g/dL and the TBIL (3 h) was 0.022 mg/dL. It also gave a TC (3 h) of 68 mg/dL, a TG (3 h) of 69 mg/dL and a TP (3 h) of 5.3 g/dL. The gamma-GTP (3 h) was 1 IU/L, the TERMINAL_BW (6 h) was 212.9 g and the APTT (6 h) was 22 s. It also gave a Bas (6 h) of 0%, an Eos (6 h) of 1% and a Fbg (6 h) of 301.2 mg/dL. For the same compound, the Hb (6 h) was 12.7 g/dL, the Ht (6 h) was 37.4% and the Lym (6 h) was 81.6%. It also gave an MCH (6 h) of 21.8 pg, an MCHC (6 h) of 34.1% and an MCV (6 h) of 64 fL. The Mono (6 h) was 2.6%, the Neu (6 h) was 14% and the PT (6 h) was 16 s. It also gave a Plat (6 h) of 122.7 x10_4/uL, an RBC (6 h) of 584.8 x10_4/ul and a Ret (6 h) of 8.2%. The WBC (6 h) was 100.6 x10_2/uL, the KIDNEY_L (6 h) was 0.9 g and the KIDNEY_R (6 h) was 0.9 g. For the same compound, the KIDNEY_TOTAL (6 h) was 1.9 g, the LIVER (6 h) was 9.4 g and the A/G (6 h) was 1.3. The ALP (6 h) was 1216.4 IU/L, the ALT (6 h) was 37.8 IU/L and the AST (6 h) was 70 IU/L. The BUN (6 h) was 11.4 mg/dL, the CRE (6 h) was 0.2 mg/dL and the Ca (6 h) was 11.2 mg/dL. For the same compound, the Cl (6 h) was 106.4 meq/L, the DBIL (6 h) was 0 mg/dL and the GLC (6 h) was 188.8 mg/dL. The IP (6 h) was 8.3 mg/dL, the K (6 h) was 4.3 meq/L and the LDH (6 h) was 177.8 IU/L. For the same compound, the Na (6 h) was 140.4 meq/L, the PL (6 h) was 140.2 mg/dL and the RALB (6 h) was 3 g/dL. It also gave a TBIL (6 h) of 0.022 mg/dL, a TC (6 h) of 80 mg/dL and a TG (6 h) of 70.6 mg/dL. For the same compound, the TP (6 h) was 5.3 g/dL, the gamma-GTP (6 h) was 1.4 IU/L and the TERMINAL_BW (9 h) was 212.6 g. The APTT (9 h) was 21.9 s, the Bas (9 h) was 0% and the Eos (9 h) was 1%. For the same compound, the Fbg (9 h) was 314.6 mg/dL, the Hb (9 h) was 12.9 g/dL and the Ht (9 h) was 37.9%. It also gave a Lym (9 h) of 76.2%, an MCH (9 h) of 20.7 pg and an MCHC (9 h) of 33.9%. It also gave an MCV (9 h) of 61 fL, a Mono (9 h) of 2.8% and a Neu (9 h) of 19.2%. The PT (9 h) was 16.2 s, the Plat (9 h) was 126.3 x10_4/uL and the RBC (9 h) was 621.4 x10_4/ul. For the same compound, the Ret (9 h) was 7.1%, the WBC (9 h) was 94.1 x10_2/uL and the KIDNEY_L (9 h) was 1 g. It also gave a KIDNEY_R (9 h) of 1 g, a KIDNEY_TOTAL (9 h) of 1.9 g and an LIVER (9 h) of 9.1 g. For the same compound, the A/G (9 h) was 1.2, the ALP (9 h) was 1259.6 IU/L and the ALT (9 h) was 38.2 IU/L. It also gave an AST (9 h) of 73.2 IU/L, a BUN (9 h) of 11.6 mg/dL and a CRE (9 h) of 0.1 mg/dL. The Ca (9 h) was 11.1 mg/dL, the Cl (9 h) was 104.4 meq/L and the DBIL (9 h) was 0 mg/dL. It also gave a GLC (9 h) of 191.6 mg/dL, an IP (9 h) of 9.4 mg/dL and a K (9 h) of 4.3 meq/L. For the same compound, the LDH (9 h) was 149.4 IU/L, the Na (9 h) was 140 meq/L and the PL (9 h) was 136.6 mg/dL. The RALB (9 h) was 3 g/dL, the TBIL (9 h) was 0.028 mg/dL and the TC (9 h) was 73.8 mg/dL. The TG (9 h) was 71.2 mg/dL, the TP (9 h) was 5.5 g/dL and the gamma-GTP (9 h) was 1.4 IU/L. It also gave a TERMINAL_BW (24 h) of 221.6 g, an APTT (24 h) of 21.5 s and a Bas (24 h) of 0%. It also gave an Eos (24 h) of 0.8%, a Fbg (24 h) of 281.4 mg/dL and a Hb (24 h) of 12.6 g/dL. It also gave a Ht (24 h) of 37.2%, a Lym (24 h) of 78.8% and an MCH (24 h) of 21.1 pg. It also gave an MCHC (24 h) of 34%, an MCV (24 h) of 62.1 fL and a Mono (24 h) of 2.8%. For the same compound, the Neu (24 h) was 17%, the PT (24 h) was 15.9 s and the Plat (24 h) was 132.3 x10_4/uL. It also gave an RBC (24 h) of 597.8 x10_4/ul, a Ret (24 h) of 7% and a WBC (24 h) of 96.2 x10_2/uL. For the same compound, the KIDNEY_L (24 h) was 0.9 g, the KIDNEY_R (24 h) was 1 g and the KIDNEY_TOTAL (24 h) was 1.9 g. For the same compound, the LIVER (24 h) was 10.4 g, the A/G (24 h) was 1.3 and the ALP (24 h) was 1657.8 IU/L. The ALT (24 h) was 47.4 IU/L, the AST (24 h) was 78.2 IU/L and the BUN (24 h) was 19.2 mg/dL. It also gave a CRE (24 h) of 0.2 mg/dL, a Ca (24 h) of 11 mg/dL and a Cl (24 h) of 105 meq/L. The DBIL (24 h) was 0 mg/dL, the GLC (24 h) was 186.6 mg/dL and the IP (24 h) was 7 mg/dL. It also gave a K (24 h) of 4.7 meq/L, an LDH (24 h) of 234.6 IU/L and a Na (24 h) of 140.4 meq/L. For the same compound, the PL (24 h) was 136.4 mg/dL, the RALB (24 h) was 3 g/dL and the TBIL (24 h) was 0.012 mg/dL. For the same compound, the TC (24 h) was 68.4 mg/dL, the TG (24 h) was 88.8 mg/dL and the TP (24 h) was 5.3 g/dL. It also gave a gamma-GTP (24 h) of 1.2 IU/L.
